{
  "source": "patent US10214510B2",
  "about": "“N-cycloalkyl-N-(biheterocyclylethylene)-(thio)carboxamide derivatives” (Bayer CropScience Aktiengesellschaft, priority 2015, dated 2019)",
  "key": {"[1]": {"system": "Alternaria brassicae", "experiment": "In vivo preventive test on Alternaria brassicae (leaf spot on radish)", "conditions": "for protection: dose of 100 and 500 ppm of active ingredient", "method": "Example A: In Vivo Preventive Test on Alternaria Brassicae (Leaf Spot on Radish) Solvent: 5% by volume of Dimethyl sulfoxide • 10% by volume of Acetone Emulsifier: 1 μL of Tween® 80 per mg of active ingredient The active ingredients are made soluble and homogenized in a mixture of Dimethyl sulfoxide/Acetone//Tween® 80 and then diluted in water to the desired concentration. The young plants of radish are treated by spraying the active ingredient prepared as described above. Control plants are treated only with an aqueous solution of Acetone/Dimethyl sulfoxide/Tween® 80. After 24 hours, the plants are contaminated by spraying the leaves with an aqueous suspension of Alternaria brassicae spores. The contaminated radish plants are incubated for 6 days at 20° C. and at 100% relative humidity. The test is evaluated 6 days after the inoculation. 0% means an efficacy which corresponds to that of the control plants while an efficacy of 100% means that no disease is observed."}, "[2]": {"system": "Puccinia recondita", "experiment": "In vivo preventive test on Puccinia recondita (brown rust on wheat)", "method": "(§1) Example B: In Vivo Preventive Test on Puccinia Recondita (Brown Rust on Wheat) Solvent: 5% by volume of Dimethyl sulfoxide • 10% by volume of Acetone Emulsifier: 1 μL of Tween® 80 per mg of active ingredient The active ingredients are made soluble and homogenized in a mixture of Dimethyl sulfoxide/Acetone//Tween® 80 and then diluted in water to the desired concentration. The young plants of wheat are treated by spraying the active ingredient prepared as described above. Control plants are treated only with an aqueous solution of Acetone/Dimethyl sulfoxide/Tween® 80. After 24 hours, the plants are contaminated by spraying the leaves with an aqueous suspension of Puccinia recondita spores. The contaminated wheat plants are incubated for 24 hours at 20° C. and at 100% relative humidity and then for 10 days at 20° C. and at 70-80% relative humidity. The test is evaluated 11 days after the inoculation. 0% means an efficacy which corresponds to that of the control plants while an efficacy of 100% means that no disease is observed."}, "[3]": {"system": "Uromyces appendiculatus", "experiment": "In vivo preventive test on Uromyces appendiculatus (bean rust)", "conditions": "for Efficacy: Table F2, dose 500 ppm; for protection: dose of 500 ppm of active ingredient", "method": "as §1, with “F:” for “B:”, “Uromyces Appendiculatus (Bean Rust)” for “Puccinia Recondita (Brown Rust on Wheat)”, “bean” for “wheat”, “Uromyces appendiculatus” for “Puccinia recondita”"}, "[4]": {"experiment": "log P by HPLC on reversed-phase column (C 18), EEC Directive 79/831 Annex V.A8", "format": "physicochemical", "conditions": "for logP: HPLC, C 18, 40° C., 0.1% aqueous formic acid and acetonitrile", "method": "In table 1, the log P values were determined in accordance with EEC Directive 79/831 Annex V.A8 by HPLC (High Performance Liquid Chromatography) on a reversed-phase column (C 18), using the method described below: Temperature: 40° C.; Mobile phases: 0.1% aqueous formic acid and acetonitrile; linear gradient from 10% acetonitrile to 90% acetonitrile. Calibration was carried out using unbranched alkan-2-ones (comprising 3 to 16 carbon atoms) with known log P values (determination of the log P values by the retention times using linear interpolation between two successive alkanones). lambda-max-values were determined using UV-spectra from 200 nm to 400 nm and the peak values of the chromatographic signals."}, "[5]": {"conditions": "dose of 500 ppm of active ingredient"}, "[6]": {"conditions": "dose of 100 and 500 ppm of active ingredient"}},
  "data": [
    {"smiles": "CC(Cc1nc2ccc(C(F)(F)F)cn2c1-c1cccnc1)N(C(=O)c1c(C(F)F)nn(C)c1F)C1CC1", "note": "(stereo not drawn) [CMP1, N-cyclopropyl-3-(difluoromethyl)-5-fluoro-1-methyl-N-{1-[3-(pyridin-3-yl)-6-(trifluoromethyl)imidazo[1,2-a]pyridin-2-yl]propan-2-yl}-1H-pyrazole-4-carboxamide, reference compound]", "values": [
      {"measurement": "Efficacy", "setting": "[1]; Table A2, dose 100 ppm", "result": 0, "unit": "%"},
      {"measurement": "Efficacy", "setting": "[1]; Table A2, dose 500 ppm", "result": 43, "unit": "%"},
      {"measurement": "protection", "setting": "[1]", "result": "less than 50%"},
      {"measurement": "Efficacy", "setting": "[2]; Table B2, dose 500 ppm", "result": 0, "unit": "%"},
      {"measurement": "protection", "setting": "[2]; [5]", "result": "no protection"}
    ]},
    {"smiles": "CC(Cc1ncc(C(F)(F)F)cc1-c1cccnc1)N(C(=O)c1c(C(F)F)nn(C)c1F)C1CC1", "note": "(stereo not drawn) [CMP2, N-cyclopropyl-3-(difluoromethyl)-5-fluoro-1-methyl-N-{1-[5-(trifluoromethyl)-3,3′-bipyridin-2-yl]propan-2-yl}-1H-pyrazole-4-carboxamide, reference compound]", "values": [
      {"measurement": "Efficacy", "setting": "[2]; Table B3, dose 100 ppm", "result": 38, "unit": "%"},
      {"measurement": "Efficacy", "setting": "[2]; Table B3, dose 500 ppm", "result": 69, "unit": "%"},
      {"measurement": "protection", "setting": "[2]; [6]", "result": "less than 70%"},
      {"measurement": "Efficacy", "setting": "[3]", "result": 0, "unit": "%"},
      {"measurement": "protection", "setting": "[3]", "result": "no protection"}
    ]},
    {"smiles": "CC(Cc1ncc(C(F)(F)F)cc1-c1cnc2ccccc2c1)N(C(=O)c1c(C(F)F)nn(C)c1F)C1CC1", "note": "(stereo not drawn) [I.01]", "values": [
      {"measurement": "logP", "setting": "[4]", "result": 3.53}
    ]},
    {"smiles": "CC(Cc1ncc(C(F)(F)F)cc1-c1csc2ccccc12)N(C(=O)c1c(C(F)F)nn(C)c1F)C1CC1", "note": "(stereo not drawn) [I.02]", "values": [
      {"measurement": "logP", "setting": "[4]", "result": 4.72}
    ]},
    {"smiles": "CC(Cc1ncc(C(F)(F)F)cc1-c1ccnc2cc(Cl)ccc12)N(C(=O)c1c(C(F)F)nn(C)c1F)C1CC1", "note": "(stereo not drawn) [I.03]", "values": [
      {"measurement": "logP", "setting": "[4]", "result": 4.20}
    ]},
    {"smiles": "CC(Cc1ncc(C(F)(F)F)cc1-c1coc2ccccc12)N(C(=O)c1c(C(F)F)nn(C)c1F)C1CC1", "note": "(stereo not drawn) [I.04]", "values": [
      {"measurement": "logP", "setting": "[4]", "result": 4.46}
    ]},
    {"smiles": "CC(Cc1ncc(C(F)(F)F)cc1-c1ccoc1)N(C(=O)c1c(C(F)F)nn(C)c1F)C1CC1", "note": "(stereo not drawn) [I.05]", "values": [
      {"measurement": "logP", "setting": "[4]", "result": 3.76},
      {"measurement": "Efficacy", "setting": "[2]; Table B3, dose 100 ppm", "result": 93, "unit": "%"},
      {"measurement": "Efficacy", "setting": "[2]; Table B3, dose 500 ppm", "result": 100, "unit": "%"},
      {"measurement": "protection", "setting": "[2]; [6]", "result": "at least 90%"},
      {"measurement": "Efficacy", "setting": "[3]", "result": 100, "unit": "%"},
      {"measurement": "protection", "setting": "[3]", "result": "total protection"}
    ]},
    {"smiles": "CC(Cc1ncc(C(F)(F)F)cc1-c1ccsc1)N(C(=O)c1c(C(F)F)nn(C)c1F)C1CC1", "note": "(stereo not drawn) [I.06, N-cyclopropyl-3-(difluoromethyl)-5-fluoro-1-methyl-N-{1-[3-(3-thienyl)-5-(trifluoro-methyl)-pyridin-2-yl]propan-2-yl}-1H-pyrazole-4-carboxamide]", "values": [
      {"measurement": "chromatographic logP", "setting": "[4]; reversed-phase HPLC column (C 18), preparation example 1", "result": 4.03}
    ]},
    {"smiles": "Cc1cscc1-c1cc(C(F)(F)F)cnc1CC(C)N(C(=O)c1c(C(F)F)nn(C)c1F)C1CC1", "note": "(stereo not drawn) [I.07]", "values": [
      {"measurement": "logP", "setting": "[4]", "result": 4.37}
    ]},
    {"smiles": "CC(Cc1ncc(C(F)(F)F)cc1-c1ccco1)N(C(=O)c1cn(C)nc1C(F)F)C1CC1", "note": "(stereo not drawn) [I.08]", "values": [
      {"measurement": "logP", "setting": "[4]", "result": 3.55}
    ]},
    {"smiles": "CC(Cc1ncc(C(F)(F)F)cc1-c1ccsc1)N(C(=O)c1cn(C)nc1C(F)F)C1CC1", "note": "(stereo not drawn) [I.09]", "values": [
      {"measurement": "logP", "setting": "[4]", "result": 3.67}
    ]},
    {"smiles": "Cc1cscc1-c1cc(C(F)(F)F)cnc1CC(C)N(C(=O)c1cn(C)nc1C(F)F)C1CC1", "note": "(stereo not drawn) [I.10]", "values": [
      {"measurement": "logP", "setting": "[4]", "result": 3.99}
    ]},
    {"smiles": "CC(Cc1ncc(C(F)(F)F)cc1-c1coc2ccccc12)N(C(=O)c1cn(C)nc1C(F)F)C1CC1", "note": "(stereo not drawn) [I.11]", "values": [
      {"measurement": "logP", "setting": "[4]", "result": 4.11}
    ]},
    {"smiles": "CC(Cc1ncc(C(F)(F)F)cc1-c1ccnc2cc(Cl)ccc12)N(C(=O)c1cn(C)nc1C(F)F)C1CC1", "note": "(stereo not drawn) [I.12]", "values": [
      {"measurement": "logP", "setting": "[4]", "result": 3.78}
    ]},
    {"smiles": "CC(Cc1ncc(C(F)(F)F)cc1-c1cnc2ccccc2c1)N(C(=S)c1c(C(F)F)nn(C)c1F)C1CC1", "note": "(stereo not drawn) [I.13]", "values": [
      {"measurement": "logP", "setting": "[4]", "result": 3.99}
    ]},
    {"smiles": "CC(Cc1ncc(C(F)(F)F)cc1-c1csc2ccccc12)N(C(=S)c1c(C(F)F)nn(C)c1F)C1CC1", "note": "(stereo not drawn) [I.14]", "values": [
      {"measurement": "logP", "setting": "[4]", "result": 5.32}
    ]},
    {"smiles": "CC(Cc1nc2ccc(C(F)(F)F)cn2c1-c1ccsc1)N(C(=O)c1c(C(F)F)nn(C)c1F)C1CC1", "note": "(stereo not drawn) [I.15]", "values": [
      {"measurement": "logP", "setting": "[4]", "result": 2.8}
    ]},
    {"smiles": "CC(Cc1nc2ccc(C(F)(F)F)cn2c1-c1ccoc1)N(C(=O)c1c(C(F)F)nn(C)c1F)C1CC1", "note": "(stereo not drawn) [I.16]", "values": [
      {"measurement": "logP", "setting": "[4]", "result": 2.63},
      {"measurement": "Efficacy", "setting": "[1]; Table A2, dose 100 ppm", "result": 86, "unit": "%"},
      {"measurement": "Efficacy", "setting": "[1]; Table A2, dose 500 ppm", "result": 86, "unit": "%"},
      {"measurement": "protection", "setting": "[1]", "result": "at least 80%"},
      {"measurement": "Efficacy", "setting": "[2]; Table B2, dose 500 ppm", "result": 78, "unit": "%"},
      {"measurement": "protection", "setting": "[2]; [5]", "result": "at least 70%"}
    ]},
    {"smiles": "CC(Cc1nc2ccc(C(F)(F)F)cn2c1-c1csc2ccccc12)N(C(=O)c1c(C(F)F)nn(C)c1F)C1CC1", "note": "(stereo not drawn) [I.17]", "values": [
      {"measurement": "logP", "setting": "[4]", "result": 3.57}
    ]},
    {"smiles": "CC(Cc1nc2ccc(C(F)(F)F)cn2c1-c1cccc2cccnc12)N(C(=O)c1c(C(F)F)nn(C)c1F)C1CC1", "note": "(stereo not drawn) [I.18]", "values": [
      {"measurement": "logP", "setting": "[4]", "result": 2.44}
    ]},
    {"smiles": "COc1ccnc(-c2c(CC(C)N(C(=O)c3c(C(F)F)nn(C)c3F)C3CC3)nc3ccc(C(F)(F)F)cn23)n1", "note": "(stereo not drawn) [I.19]", "values": [
      {"measurement": "logP", "setting": "[4]", "result": 2.44}
    ]},
    {"smiles": "CC(Cc1nc2ccc(C(F)(F)F)cn2c1-c1ccsc1)N(C(=O)c1nn(C)nc1C(F)F)C1CC1", "note": "(stereo not drawn) [I.20]", "values": [
      {"measurement": "logP", "setting": "[4]", "result": 3.08}
    ]},
    {"smiles": "CC(Cc1ncc(C(F)(F)F)cc1CN1CCCCC1)N(C(=O)c1c(C(F)F)nn(C)c1F)C1CC1", "note": "(stereo not drawn) [I.21]", "values": [
      {"measurement": "logP", "setting": "[4]", "result": 1.82}
    ]},
    {"smiles": "CC(Cc1ncc(C(F)(F)F)cc1CN1CCCCC1)N(C(=O)c1cn(C)nc1C(F)F)C1CC1", "note": "(stereo not drawn) [I.22]", "values": [
      {"measurement": "logP", "setting": "[4]", "result": 1.67}
    ]},
    {"smiles": "CC(Cc1nc2ccc(C(F)(F)F)cn2c1-c1ccsc1)N(C(=O)c1ccsc1Cl)C1CC1", "note": "(stereo not drawn) [I.23]", "values": [
      {"measurement": "logP", "setting": "[4]", "result": 4.44}
    ]},
    {"smiles": "Cc1cc(C(=O)N(C(C)Cc2nc3ccc(C(F)(F)F)cn3c2-c2ccsc2)C2CC2)c(C)o1", "note": "(stereo not drawn) [I.24]", "values": [
      {"measurement": "logP", "setting": "[4]", "result": 3.35}
    ]},
    {"smiles": "Cc1nc(C(F)F)c(C(=O)N(C(C)Cc2nc3ccc(C(F)(F)F)cn3c2-c2ccsc2)C2CC2)s1", "note": "(stereo not drawn) [I.25]", "values": [
      {"measurement": "logP", "setting": "[4]", "result": 3.39}
    ]}
  ]
}
